Measurements from ChEMBL document CHEMBL1129208, “Synthesis and activity of 2,6,9-trisubstituted purines” (Bioorg Med Chem Lett, 1997).
“And” between values parts separate entries of the source, which are not always exact repeats. Equal entries are not always repeated.

target: Cyclin-dependent kinase 2/cyclin E (Homo sapiens, UniProt P24941); assay: Inhibitory concentration against cyclin dependent kinase-2 (CDK2)/Cyclin E; type: protein-complex assay

Row | IC50 | SMILES
1 | > 5000 nM | CN(Cc1ccc(C(=O)O)cc1)c1[nH]c(Cl)nc2ncnc1-2
2 | > 5000 nM | COc1ccc(CNc2nc(C3CC[C@@H](Cc4ccccc4N)N3)nc3c2ncn3C(C)C)cc1 (some centres not stated)
3 | 1000 nM | CC(C)n1cnc2c(Nc3ccc(Br)cc3)nc(N(CCO)CCO)nc21
4 | 2000 nM | COc1ccc(CNc2nc(NCC(O)CO)nc3c2ncn3C(C)C)cc1 (configuration not stated)
5 | > 5000 nM | Cn1cnc2c(NCCc3ccccc3)nc(Cl)nc21
6 | > 5000 nM | CN(c1ccncc1)c1nc(Cl)nc2c1ncn2C1CCCC1
7 | > 5000 nM | CC(C)n1cnc2c(N(C)Cc3ccc(-c4ccccc4)cc3)nc(Cl)nc21
8 | 2000 nM | COc1ccc(CNc2nc(N(CCO)CCO)nc3c2ncn3CC(C)C)cc1
9 | 2000 nM | COc1ccc(CNc2nc(N(CCO)CCO)nc3c2ncn3Cc2cccc([N+](=O)[O-])c2)cc1
10 | 2000 nM | CC(C)n1cnc2c(N(C)C3CC3)nc(N(CCO)CCO)nc21
11 | > 5000 nM | COc1ccc(CNc2nc(N3CCC(O)C3)nc3c2ncn3C(C)C)cc1 (configuration not stated)
12 | 800 nM | CC(C)n1cnc2c(NCc3ccc4c(c3)OCO4)nc(N(CCO)CCO)nc21
13 | 4000 nM and 700 nM | COc1ccc(CNc2nc(Cl)nc3c2ncn3C)cc1
14 | 5000 nM | COc1ccc(CNc2nc(N(CCO)CCO)nc3c2ncn3Cc2ccc3ccccc3c2)cc1
15 | 5000 nM | CC(C)(C)OC(=O)Cn1cnc2c(NCc3ccc(-c4ccccc4)cc3)nc(N(CCO)CCO)nc21
16 | > 5000 nM | CC(C)n1cnc2c(NCc3ccc(-c4ccccc4)cc3)nc(NCc3ccco3)nc21
17 | 3000 nM | CCCCCCCC/C=C\CCCCCCCCn1cnc2c(NCc3ccc(OC)cc3)nc(N(CCO)CCO)nc21
18 | > 5000 nM | COc1ccc(CNc2nc(N(CCO)CCO)nc3c2ncn3Cc2ccccc2-c2ccccc2)cc1
19 | 5000 nM | COCCN(CCOC)c1nc(NCc2ccc(-c3ccccc3)cc2)c2ncn(C(C)C)c2n1
20 | 1000 nM | COc1ccc(CNc2nc(N(CCO)CCO)nc3c2ncn3CCO)cc1
21 | > 5000 nM | CC(C)n1cnc2c(Nc3cccc4cccnc34)nc(N(CCO)CCO)nc21
22 | > 5000 nM | COc1ccc(CNc2nc(N(CCO)CCO)nc3c2ncn3CC(O)CO)cc1 (configuration not stated)
23 | > 5000 nM | COCCCNc1nc(Cl)nc2c1ncn2C
24 | 1000 nM | FC(F)(F)n1cnc2c(NCc3ccc(Cl)cc3)nc(Cl)nc21

Row | IC50 | SMILES
25 | > 5000 nM | COc1ccc(CNc2nc(NCCN)nc3c2ncn3C(C)C)cc1
26 | > 5000 nM | Cn1cnc2c(NC3CCN(Cc4ccccc4)CC3)nc(Cl)nc21
27 | > 5000 nM | O=C1c2ccccc2C(=O)N1CCNc1nc(Cl)nc2nc[nH]c12
28 | > 5000 nM | CC(C)n1cnc2c(NCc3ccc(C4=CC(=S)CC=C4)cc3)nc(N(CCO)CCO)nc21
29 | 1000 nM | COc1ccc(CNc2nc(N(CCO)Cc3ccccc3)nc3c2ncn3C(C)C)cc1
30 | 5000 nM | COc1ccc(CNc2nc(N3CCCC3)nc3c2ncn3C(C)C)cc1
31 | > 5000 nM | CC(C)Cn1cnc2c(N(C)c3cccnc3)nc(Cl)nc21
32 | > 5000 nM | CC(C)n1cnc2c(NC3Cc4ccccc4C3)nc(N(CCO)CCO)nc21
33 | 2000 nM | COc1ccc(CNc2nc(N3CCC(O)CC3)nc3c2ncn3C(C)C)cc1
34 | > 5000 nM | COc1ccc(CNc2nc(N(C)CC(O)c3ccccc3)nc3c2ncn3C(C)C)cc1 (configuration not stated)
35 | 1500 nM | COc1ccc(CNc2nc(NCCO)nc3c2ncn3C(C)C)cc1
36 | > 5000 nM | N#CCCCNc1nc(Cl)nc2nc[nH]c12
37 | > 5000 nM | CCn1cnc2c(NCCc3ccccc3)nc(Cl)nc21
38 | 2000 nM | CCC(C)Cn1cnc2c(NCc3ccc(OC)cc3)nc(N(CCO)CCO)nc21 (configuration not stated)
39 | > 5000 nM | Cn1cnc2c(NCCCCCCO)nc(Cl)nc21
40 | > 5000 nM | C=CCN(CC=C)c1nc(NCc2ccc(OC)cc2)c2ncn(C(C)C)c2n1
41 | > 5000 nM | CCCn1cnc2c(NCCCCCCO)nc(Cl)nc21
42 | > 5000 nM | Cn1cnc2c(NC3CCCC3)nc(Cl)nc21
43 | 2000 nM | COc1ccc(CNc2nc(N(CCO)CCO)nc3c2ncn3C2CCCC2)cc1
44 | 5000 nM | CC(C)n1cnc2c(Nc3ccc(Br)cc3)nc(Nc3ccc(Br)cc3)nc21
45 | > 5000 nM | Cn1cnc2c(NCc3cccnc3)nc(Cl)nc21
46 | 1000 nM | COc1ccc(CNc2nc(NC3CCCCC3O)nc3c2ncn3C(C)C)cc1 (configuration not stated)
47 | > 5000 nM | CC(C)n1cnc2c(Nc3nc4ccccc4s3)nc(Cl)nc21
48 | 3000 nM | CC(O)Nc1nc(NCc2ccc(-c3ccccc3)cc2)c2ncn(C(C)C)c2n1 (configuration not stated)

Row | IC50 | SMILES
49 | > 5000 nM | ClCCCCNc1[nH]c(Cl)nc2ncnc1-2
50 | 3000 nM | COc1ccc(CNc2nc(N(C)CC(O)c3ccc(O)c(O)c3)nc3c2ncn3C(C)C)cc1 (configuration not stated)
51 | > 5000 nM | Cn1cnc2c(NCc3ccncc3)nc(Cl)nc21
52 | 500 nM | COc1ccc(CNc2nc(NC(C)(O)CO)nc3c2ncn3C(C)C)cc1 (configuration not stated)
53 | 1000 nM | CC(C)n1cnc2c(NCc3ccc(-c4ccccc4)cc3)nc(N(CCO)CCO)nc21
54 | 1000 nM | COc1ccc(CNc2nc(NC(O)CN)nc3c2ncn3C(C)C)cc1 (configuration not stated)
55 | > 5000 nM | CC(C)n1cnc2c(NCCCc3ccccc3)nc(N(CCO)CCO)nc21
56 | 2500 nM | COc1ccc(CNc2nc(NCCO)nc3c2ncn3C)cc1
57 | > 5000 nM | Clc1nc(NCc2ccccc2)c2[nH]cnc2n1
58 | > 5000 nM | Cn1cnc2c(NC(C)(C)CO)nc(Cl)nc21
59 | > 5000 nM | COc1ccc(CNc2nc(Cl)nc3c2ncn3Cc2ccc(-c3ccccc3)cc2)cc1
60 | 2000 nM | COc1ccc(CNc2nc(NCCc3c[nH]c4ccccc34)nc3c2ncn3C(C)C)cc1
61 | > 5000 nM | Cn1cnc2c(Nc3nc4ccccc4s3)nc(Cl)nc21
62 | 600 nM | CC(C)n1cnc2c(NCc3ccc(-c4cccs4)cc3)nc(N(CCO)CCO)nc21
63 | 2000 nM | CC(C)n1cnc2c(Nc3cnc4ccccc4c3)nc(N(CCO)CCO)nc21
64 | > 5000 nM | COCCNc1nc(Cl)nc2c1ncn2C
65 | 1000 nM | COc1ccc(CNc2nc(N(Cc3cccnc3)CC(C)C#N)nc3c2ncn3C(C)C)cc1 (configuration not stated)
66 | 2000 nM | CC(C)n1cnc2c(Nc3ccccc3)nc(N(CCO)CCO)nc21
67 | 2000 nM | CCCCc1ccc(CNc2nc(N(CCO)CCO)nc3c2ncn3C(C)C)cc1
68 | 4000 nM | COc1ccc(CNc2nc(N3CCCCC3CO)nc3c2ncn3C(C)C)cc1 (configuration not stated)
69 | 600 nM | CC(C)n1cnc2c(NCc3ccc(-c4ccccc4)cc3)nc(NCC(O)CO)nc21 (configuration not stated)
70 | 2000 nM | CC(C)n1cnc2c(NCc3ccc(Br)cc3)nc(N(CCO)CCO)nc21
71 | 2000 nM | COc1ccc(CNc2nc(N(CCO)CCO)nc3c2ncn3Cc2ccc([N+](=O)[O-])cc2)cc1
72 | 600 nM | CC(C)n1cnc2c(Nc3ccc(-c4ccccc4)cc3)nc(N(CCO)CCO)nc21
